Test results from patent US7652029B2, “Therapeutic compound and treatments” (priority 2004, dated 2010).

Key:
Type in all cases: cell-based, human
CCRF-CEM = test: NCI multiple cell line test (SRB); conditions: CCRF-CEM (Leukemia), 48 h
K-562 = test: NCI multiple cell line test (SRB); conditions: K-562 (Leukemia), 48 h
MOLT-4 = test: NCI multiple cell line test (SRB); conditions: MOLT-4 (Leukemia), 48 h
RPMI-8226 = test: NCI multiple cell line test (SRB); conditions: RPMI-8226 (Leukemia), 48 h
EKVX = test: NCI multiple cell line test (SRB); conditions: EKVX (Non-Small Cell Lung Cancer), 48 h
HOP-92 = test: NCI multiple cell line test (SRB); conditions: HOP-92 (Non-Small Cell Lung Cancer), 48 h
NCI-H226 = test: NCI multiple cell line test (SRB); conditions: NCI-H226 (Non-Small Cell Lung Cancer), 48 h
COLO 205 = test: NCI multiple cell line test (SRB); conditions: COLO 205 (Colon Cancer), 48 h
HCT-15 = test: NCI multiple cell line test (SRB); conditions: HCT-15 (Colon Cancer), 48 h
SW-620 = test: NCI multiple cell line test (SRB); conditions: SW-620 (Colon Cancer), 48 h
SF-295 = test: NCI multiple cell line test (SRB); conditions: SF-295 (CNS Cancer), 48 h
UACC-62 = test: NCI multiple cell line test (SRB); conditions: UACC-62 (Melanoma), 48 h
IGROV1 = test: NCI multiple cell line test (SRB); conditions: IGROV1 (Ovarian Cancer), 48 h
ACHN = test: NCI multiple cell line test (SRB); conditions: ACHN (Renal Cancer), 48 h
SN12C = test: NCI multiple cell line test (SRB); conditions: SN12C (Renal Cancer), 48 h
UO-31 = test: NCI multiple cell line test (SRB); conditions: UO-31 (Renal Cancer), 48 h
PC-3 = test: NCI multiple cell line test (SRB); conditions: PC-3 (Prostate Cancer), 48 h
T-47D = test: NCI multiple cell line test (SRB); conditions: T-47D (Breast Cancer), 48 h
H226 cells = test: Growth response, MTT dye conversion assay
ACHN cells = test: Growth response, MTT dye conversion assay; conditions: low doses (FIG. 14 as printed)
[1] = Homo sapiens, read-out: −log10GI50 (converted)

Compound: COC(=O)C1=C(C(=O)OC)SC2(S1)C(C(=O)OC)=C(C(=O)OC)SC1=C2c2cccc(OC)c2N(C(=O)CN2C(=O)CCC2=O)C1(C)C [MT477]
- −log10LC50 (CCRF-CEM): * (effect not reached at maximum dose of 0.05 millimolar)
- −log10TGI (CCRF-CEM): * (effect not reached at maximum dose of 0.05 millimolar)
- IC50 (CCRF-CEM; [1]): 3240 nM
- IC50 (K-562; Homo sapiens, K562, read-out: −log10GI50 (converted)): 1620 nM
- −log10LC50 (K-562): * (effect not reached at maximum dose of 0.05 millimolar)
- −log10TGI (K-562): 4.99 molar
- IC50 (MOLT-4; [1]): 1020 nM
- −log10LC50 (MOLT-4): 4.68 molar
- −log10TGI (MOLT-4): 5.64 molar
- IC50 (RPMI-8226; [1]): 7590 nM
- −log10LC50 (RPMI-8226): 4.42 molar
- −log10TGI (RPMI-8226): 4.77 molar
- −log10LC50 (EKVX): 4.34 molar
- −log10TGI (EKVX): 4.7 molar
- IC50 (EKVX; [1]): 8510 nM
- −log10LC50 (HOP-92): 4.6 molar
- −log10TGI (HOP-92): 5.21 molar
- IC50 (HOP-92; [1]): 1660 nM
- IC50 (NCI-H226; [1]): 7080 nM
- −log10LC50 (NCI-H226): * (effect not reached at maximum dose of 0.05 millimolar)
- −log10TGI (NCI-H226): 4.72 molar
- −log10LC50 (COLO 205): * (effect not reached at maximum dose of 0.05 millimolar)
- −log10TGI (COLO 205): 5.19 molar
- IC50 (COLO 205; [1]): 1660 nM
- −log10LC50 (HCT-15): 4.69 molar
- −log10TGI (HCT-15): 5.27 molar
- IC50 (HCT-15; [1]): 1480 nM
- IC50 (SW-620; [1]): 1660 nM
- −log10LC50 (SW-620): * (effect not reached at maximum dose of 0.05 millimolar)
- −log10TGI (SW-620): * (effect not reached at maximum dose of 0.05 millimolar)
- IC50 (SF-295; [1]): 9550 nM
- −log10LC50 (SF-295): * (effect not reached at maximum dose of 0.05 millimolar)
- −log10TGI (SF-295): 4.56 molar
- IC50 (UACC-62; [1]): 1170 nM
- −log10LC50 (UACC-62): 5.03 molar
- −log10TGI (UACC-62): 5.55 molar
- IC50 (IGROV1; Homo sapiens, IGROV-1, read-out: −log10GI50 (converted)): 17800 nM
- −log10LC50 (IGROV1): * (effect not reached at maximum dose of 0.05 millimolar)
- −log10TGI (IGROV1): 4.3 molar
- −log10LC50 (ACHN): 5.5 molar
- −log10TGI (ACHN): 5.77 molar
- IC50 (ACHN; [1]): 891 nM
- IC50 (SN12C; [1]): 5890 nM
- −log10LC50 (SN12C): 4.6 molar
- −log10TGI (SN12C): 4.91 molar
- IC50 (UO-31; [1]): 3390 nM
- −log10LC50 (UO-31): * (effect not reached at maximum dose of 0.05 millimolar)
- −log10TGI (UO-31): 4.81 molar
- IC50 (PC-3; [1]): 1450 nM
- −log10LC50 (PC-3): 4.64 molar
- −log10TGI (PC-3): 5.35 molar
- IC50 (T-47D; Homo sapiens, T47D, read-out: −log10GI50 (converted)): 1510 nM
- −log10LC50 (T-47D): * (effect not reached at maximum dose of 0.05 millimolar)
- −log10TGI (T-47D): 5.40 molar
- growth response (H226 cells; FIG. 5, 48 hours, compared with cisplatin): more effective than cisplatin
- growth response at low concentrations (H226 cells; H226 cells, low doses (FIG. 11 as printed)): effective even at very low doses, including micromolar dosages
- growth response at low concentrations (ACHN cells): effective even at very low doses, including micromolar dosages
